From PMC13366330 (Acta Pharmaceutica Sinica. B, 2025)

Experiments:
TAMs in tumor tissue = test: M2 polarization of TAMs in tumor tissue, flow cytometry; assay type: in vivo, C57 mice; conditions: 10 mg/kg, intraperitoneal
[1] = Body and organ weights, organ H&E in the antitumor experiment; assay type: in vivo, C57 mice; conditions: 100 mg/kg, intraperitoneal

SMILES	percentage of M2 polarization in TAMs (TAMs in tumor tissue) [%]	liver H&E finding [1]	spleen weight [1]
C[C@H](NC(=O)c1c(N)nn2cccnc12)c1cc2cccc(C#Cc3cnn(C)c3)c2c(=O)n1-c1ccccc1 [IPI-549]	15.40	–	–
CN(C)/N=N/c1[nH]cnc1C(N)=O [dacarbazine]	–	coagulative necrosis	significant decrease
